Assay results as given in article PMC7144940, “Principles of RNA and nucleotide discrimination by the RNA processing enzyme RppH” (Nucleic Acids Research, 2020).
“Also recorded” adds a separate entry of the source. Like-named read-outs stand apart in the source and are kept apart here. Values belong to the molecule of their own block, whether it stands above or below them.

Tests used:
Escherichia coli RppH [1] = target: T1, Escherichia coli RppH (Escherichia coli, UniProt P0A776); assay type: biochemical; design: 0.1 mM substrate and 1 μM full-length RppH in case of nucleotides; decahistidine (N, cleaved yes); SUMO (N, cleaved yes); made in house; host or cells: E. coli BL21(DE3); details: for initial reaction rate of hydrolysis by RppH: nucleotide substrate 0.1 mM, 1 μM full-length RppH, pH 7.5, 10 mM MgCl2, 37°C, linear regression, n = 2, error is SE
Protocol: (§1) RppH activity on pppAG and ppAG RNAs, NTPs, NDPs, and ppGpp was determined by kinetic analysis, as described in ref. ([6]). Each reaction mixture contained 0.1 mM substrate and 1 μM full-length RppH in case of nucleotides and 0.1 μM RppH in case of RNA, in a 50-μL solution containing 50 mM HEPES-NaOH, pH 7.5, 10 mM MgCl2 , 0.1% Triton X-100, at 37°C. Reactions were incubated for 0–20 min and quenched with 750 μl of 50 mM sodium acetate, pH 4.5. The quenched reaction samples were analyzed by anion-exchange chromatography on a 5 × 50 mm MonoQ column (GE Healthcare). The reaction products and remaining substrates were eluted with a 0–1.0 M NaCl gradient in 10 mM Tris-HCl, pH 7.5, detected at 260 nm, and the amount of each mono- or oligonucleotide was calculated by using the integration function in UNICORN software (GE Healthcare). The initial reaction rates were calculated based on the ratio between remaining substrate and reaction products using a linear fit model of GraphPad. Each assay was repeated at least twice.
Target sequence in this assay (P0A776 whole entry): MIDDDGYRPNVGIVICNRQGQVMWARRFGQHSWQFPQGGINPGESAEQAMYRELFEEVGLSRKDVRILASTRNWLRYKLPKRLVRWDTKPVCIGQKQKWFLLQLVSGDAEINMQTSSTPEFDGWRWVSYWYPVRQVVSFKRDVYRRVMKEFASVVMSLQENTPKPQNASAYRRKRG

Escherichia coli RppH [2] = target: T1, Escherichia coli RppH; assay type: biochemical; design: 0.1 mM substrate and 1 μM full-length RppH in case of nucleotides; decahistidine (N, cleaved yes); SUMO (N, cleaved yes); made in house; host or cells: E. coli BL21(DE3); details: for hydrolysis by RppH (TLC): 1 mM substrate, 5 μM RppH, 37°C, 1 h
Protocol: Reactions for thin layer chromatography (TLC) were performed with 1 mM nucleotide substrates and 5 μM of the full-length RppH, in a 10-μl solution containing 10 mM MgCl2 and 50 mM buffer with different pH. Buffers were: MES-NaOH, pH 6.0; Na-cacodylate-HCl, pH 6.5; MOPS-NaOH, pH 7.0; HEPES-NaOH, pH 7.5; Tris-HCl, pH 8.0, 8.5 and 9.0. Reactions were incubated at 37°C for 1 h and quenched with 5 μl of 150 mM ethylenediaminetetraacetic acid (EDTA). Samples were analyzed on PEI-cellulose plates (F-254, Selecto Scientific) in 0.3 M potassium phosphate buffer, pH 7.5, for adenosine triphosphate (ATP), adenosine diphosphate (ADP), GTP, GDP, pppAG (RNA), ppGpp and pppGpp, and pH 3.3 for CTP and CDP, UTP and UDP. RNAs were visualized by UV254 shadowing. The equimolar amount of wild-type E. coli DapF ([8]) was added to the reactions for testing RppH activity stimulation at pH 7.5. Inhibition of RppH activity was conducted using NaF (Sigma-Aldrich) at 1–10 mM. For TLC experiments, original colored images were converted to black-and-white images, and the levels of brightness were adjusted to enhance the contrast and better visualize reaction products.
Target sequence in this assay (P0A776 whole entry): as above

Escherichia coli RppH [3] = target: T1, Escherichia coli RppH; assay: Metal dependence of RppH reactivity (TLC); assay type: biochemical; design: RppHd (Δ161-176); Nterm-Ser0-Met1; decahistidine (N, cleaved yes); SUMO (N, cleaved yes); made in house; host or cells: E. coli BL21(DE3); details: 5 mM substrate, 5 μM RppHd
Protocol: Reactions were performed with 5 mM GTP and 5 μM RppHd, in a 20-μL solution containing 10 mM divalent cation salt (MgCl2, MnCl2, NiCl2, or CaCl2) and 50 mM buffer with different pH (HEPES-Na, pH 7.5; Tris-HCl, pH 8.0, 8.5, 9.0). Reactions were incubated at 37 °C for 1 h and quenched with 10 μL 150 mM EDTA. Samples were analyzed on PEI-cellulose plates in 0.3 M potassium phosphate buffer, pH 7.5, at room temperature. RNAs were visualized by UV254 shadowing.
Target sequence in this assay (P0A776 1-160): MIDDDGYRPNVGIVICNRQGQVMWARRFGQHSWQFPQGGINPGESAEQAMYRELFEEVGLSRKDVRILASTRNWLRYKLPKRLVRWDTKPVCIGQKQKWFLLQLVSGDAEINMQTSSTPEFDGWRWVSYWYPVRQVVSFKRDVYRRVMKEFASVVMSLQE

Escherichia coli RppH [4] = target: T1, Escherichia coli RppH; assay: Competition experiments: inhibition of RNA hydrolysis by nucleotides; assay type: biochemical; design: 0.1 mM substrate and 1 μM full-length RppH in case of nucleotides; decahistidine (N, cleaved yes); SUMO (N, cleaved yes); made in house; host or cells: E. coli BL21(DE3)
Protocol: as §1
Target sequence in this assay (P0A776 whole entry): as the sequence (P0A776 whole entry) above
Competition experiments were conducted using the same protocol as cleavage assays with the 0.1 mM substrate RNA concentration, the nucleotide concentration ranging between 0.1-5.0 mM, and 10 min incubation. The initial reaction rates were calculated based on the ratio between reaction products and remaining substrate using a linear fit model of GraphPad software. Because of peak overlap, inhibition of GTP hydrolysis was determined solely based on quantification of the reaction products. IC50 values were determined using an IC50 model of GraphPad.

[5] = target: T2, DapFm (E. coli DapF with Y268A and R36A mutations) (Escherichia coli, UniProt P0A6K1 1-274, Y268A | R36A); assay: crystal structure; RppHt-DapFm complex formed by mixing DapFm and RppHt at a molar ratio of 1:1.2 (20 mM Tris-HCl pH 8.0, 500 mM NaCl, 1 mM DTT), purified on Superdex 200; crystals from 30% PEG400, 0.1 M CHES pH 9.2, 18°C; soaked with GTP, GDP or pppGpp with MgCl2 and NaF; details: both partners purified
T2 construct: extra serine left at the N-terminus of all proteins by the ULP1 cleavage of the His10-SUMO tags; DapF (diaminopimelate epimerase), Escherichia coli, mutated variant of the full-length protein with Y268A and R36A; source: E. coli BL21(DE3), purified (HisTrap FF, tag cleavage by ULP1, Superdex 200); not shown: decahistidine, N-terminal, cleaved; SUMO, N-terminal, cleaved
T2 sequence: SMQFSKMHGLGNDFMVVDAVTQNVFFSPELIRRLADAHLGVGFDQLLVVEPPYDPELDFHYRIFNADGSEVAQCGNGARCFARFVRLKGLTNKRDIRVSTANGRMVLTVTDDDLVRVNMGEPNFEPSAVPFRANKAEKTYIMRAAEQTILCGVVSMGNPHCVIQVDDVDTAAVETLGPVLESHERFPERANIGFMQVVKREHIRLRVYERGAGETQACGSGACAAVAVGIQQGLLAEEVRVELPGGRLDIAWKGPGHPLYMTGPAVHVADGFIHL

[6] = longer incubation, pH 7.5, 1 μM RppH

Molecule: Nc1ncnc2c1ncn2[C@@H]1O[C@H](COP(=O)(O)OP(=O)(O)OP(=O)(O)O)[C@@H](O)[C@H]1O [ATP, adenosine triphosphate]
undigested substrate remaining at plateau (Escherichia coli RppH [1]; [6]): ~70%
initial reaction rate of hydrolysis by RppH (Escherichia coli RppH [1]): 4.2 ± 0.24 µM/min
hydrolysis by RppH (TLC) (Escherichia coli RppH [2]; pH 8.5 and 9.0): all

Molecule: Nc1ccn([C@@H]2O[C@H](COP(=O)(O)OP(=O)(O)OP(=O)(O)O)[C@@H](O)[C@H]2O)c(=O)n1 [CTP, cytidine triphosphate]
hydrolysis by RppH (TLC) (Escherichia coli RppH [2]; pH 8.5 and 9.0): majority

effect on E. coli RppH activity (TLC) (Escherichia coli RppH [2]; NaF 1-10 mM, GTP and GDP at pH 8.0, pppGpp and ppGpp at pH 7.5): Inhibition
Molecule: F [fluoride]

Molecule: Nc1nc2c(ncn2[C@@H]2O[C@H](COP(=O)(O)OP(=O)(O)OP(=O)(O)O)[C@@H](OP(=O)(O)OP(=O)(O)O)[C@H]2O)c(=O)[nH]1 [pppGpp]
initial reaction rate of hydrolysis by RppH (Escherichia coli RppH [1]): 1.30 ± 0.10 µM/min
times less reactive than GTP (Escherichia coli RppH [1]; ratio of initial rates, pH 7.5): ~2.4
hydrolysis by RppH (TLC) (Escherichia coli RppH [2]; pH 7.5): very slow hydrolysis
hydrolysis by RppH (TLC) (Escherichia coli RppH [2]; pH 8.0): moderate hydrolysis

Molecule: Nc1ncnc2c1ncn2[C@@H]1O[C@H](COP(=O)(O)OP(=O)(O)O)[C@@H](O)[C@H]1O [ADP, adenosine diphosphate]
hydrolysis by RppH (TLC) (Escherichia coli RppH [2]; pH 8.0): all

Molecule: O=c1ccn([C@@H]2O[C@H](CO[P@@](=O)(O)O[P@@](=O)(O)OP(=O)(O)O)[C@@H](O)[C@H]2O)c(=O)[nH]1 (stereo in doubt) [UTP, uridine triphosphate]
hydrolysis by RppH (TLC) (Escherichia coli RppH [2]; pH 8.5 and 9.0): majority

Molecule: Nc1ccn([C@@H]2O[C@H](COP(=O)(O)OP(=O)(O)O)[C@@H](O)[C@H]2O)c(=O)n1 [CDP]
hydrolysis by RppH (TLC) (Escherichia coli RppH [2]; pH 8.0): almost all

Molecule: Nc1nc2c(ncn2[C@@H]2O[C@H](COP(=O)(O)OP(=O)(O)O)[C@@H](OP(=O)(O)OP(=O)(O)O)[C@H]2O)c(=O)[nH]1 [ppGpp]
initial reaction rate of hydrolysis by RppH (Escherichia coli RppH [1]): 1.20 ± 0.07 µM/min
times less reactive than GDP (Escherichia coli RppH [1]; ratio of initial rates, pH 7.5): ~2.8
hydrolysis by RppH (TLC) (Escherichia coli RppH [2]; pH 7.0): slow hydrolysis
hydrolysis by RppH (TLC) (Escherichia coli RppH [2]; pH 7.5): About half
hydrolysis by RppH (TLC) (Escherichia coli RppH [2]; pH 8.0): most

Molecule: O=c1ccn([C@@H]2O[C@H](COP(=O)(O)OP(=O)(O)O)[C@@H](O)[C@H]2O)c(=O)[nH]1 [UDP]
hydrolysis by RppH (TLC) (Escherichia coli RppH [2]; pH 8.0): almost all

Molecule: Nc1nc2c(ncn2[C@@H]2O[C@H](COP(=O)(O)OP(=O)(O)OP(=O)(O)O)[C@@H](O)[C@H]2O)c(=O)[nH]1 [GTP, guanosine triphosphate]
hydrolysis by RppH in the presence of Mg2+ (Escherichia coli RppH [3]; 10 mM MgCl2, pH 7.5-9.0, 1 h): support hydrolysis most; also recorded: most efficiently
hydrolysis by RppH in the presence of Mn2+ (Escherichia coli RppH [3]; 10 mM MnCl2, pH 7.5-9.0, 1 h): very low efficiency; also recorded: some activity
hydrolysis by RppH in the presence of Ni2+ or Ca2+ (Escherichia coli RppH [3]; 10 mM NiCl2 or CaCl2, pH 7.5-9.0, 1 h): do not support hydrolysis; also recorded: no activity
undigested substrate remaining at plateau (Escherichia coli RppH [1]; [6]): ~70%
initial reaction rate of hydrolysis by RppH (Escherichia coli RppH [1]): 3.1 ± 0.13 µM/min
IC50 (Escherichia coli RppH [4]): ~4100 µM
IC50 (Escherichia coli RppH [4]; IC50, inhibition of RppH reactivity with pppAG RNA, 0.1 mM pppAG RNA, nucleotide 0.1-5.0 mM, 10 mM Mg2+, pH 7.5, 10 min, n = 2, mean ± SE): 1580 µM
IC50 (Escherichia coli RppH [4]; IC50, range over pppAG and ppAG RNA substrates, pppAG and ppAG RNA): 1600 to 4100 µM
IC50 (Escherichia coli RppH [4]; concentration to achieve 2-fold inhibition of the reaction of RppH with ppAG, ppAG RNA): ~4100 µM
IC50 (Escherichia coli RppH [4]; concentration to achieve 2-fold inhibition of the reaction of RppH with pppAG, pppAG RNA): ~1600 µM
hydrolysis by RppH (TLC) (Escherichia coli RppH [2]; pH 8.5 and 9.0): majority

Molecule: Nc1nc2c(ncn2[C@@H]2O[C@H](COP(=O)(O)OP(=O)(O)O)[C@@H](O)[C@H]2O)c(=O)[nH]1 [GDP]
conversion of substrate, without approaching a plateau (Escherichia coli RppH [1]; [6]): ~50%
initial reaction rate of hydrolysis by RppH (Escherichia coli RppH [1]): 3.4 ± 0.07 µM/min
IC50 (Escherichia coli RppH [4]; 0.1 mM ppAG RNA, nucleotide 0.1-5.0 mM, 10 mM Mg2+, pH 7.5, 10 min, n = 2, mean ± SE, GTP value estimated from a smooth curve, read-out: IC50, inhibition of RppH reactivity with ppAG RNA): ~59 µM
IC50 (Escherichia coli RppH [4]; 0.1 mM pppAG RNA, nucleotide 0.1-5.0 mM, 10 mM Mg2+, pH 7.5, 10 min, n = 2, mean ± SE, read-out: IC50, inhibition of RppH reactivity with pppAG RNA): ~32 µM
hydrolysis by RppH (TLC) (Escherichia coli RppH [2]; pH 8.0): almost all

binding result [5]: binds
B1: RppHt (E. coli RppH, Δ161-176 and Q159A/E160A) (enzyme, Escherichia coli)
chain: SMIDDDGYRPNVGIVICNRQGQVMWARRFGQHSWQFPQGGINPGESAEQAMYRELFEEVGLSRKDVRILASTRNWLRYKLPKRLVRWDTKPVCIGQKQKWFLLQLVSGDAEINMQTSSTPEFDGWRWVSYWYPVRQVVSFKRDVYRRVMKEFASVVMSLAA
notes: extra serine (Ser0) left at the N-terminus by the ULP1 cleavage of the His10-SUMO tags; RNA pyrophosphohydrolase RppH, Escherichia coli, C-terminally truncated variant Δ161-176 (Met1 to residue 160) with Q159A/E160A; printed as Nterm-Ser0-Met1…Ala159-Ala160-Cterm; source: E. coli BL21(DE3), purified (HisTrap FF, tag cleavage by ULP1, HiTrap SP, Superdex 75); not shown: decahistidine, N-terminal, …
